Patent US20230331655A1, “HYDROXYN[…] AND METHODS OF USE THEREOF” (UNIVERSITY OF MARYLAND, BALTIMORE, priority 2020, published 2023)

Key:
[1] = pharmacokinetics in plasma and brain after intraperitoneal administration (UPLC-MS/MS); assay type: in vivo, mouse; set-up: key to Brain Concentration over time, sex-dependent difference / Plasma Concentration over time, sex-dependent difference: F, female; M, male; NS, not statistically different; settings: i.p. 5 mg/kg; for t1/2 Brain / t1/2 Plasma: terminal half-life; for Brain Concentration over time, sex-dependent difference / Plasma Concentration over time, sex-dependent difference / Brain Total exposure (AUC), sex-dependent difference / Plasma Total exposure (AUC), sex-dependent difference: female vs male mice; for Brain Concentration over time, sex-dependent difference / Plasma Concentration over time, sex-dependent difference: ANOVA, Holm-Šídák post-hoc; for Brain Total exposure (AUC), sex-dependent difference / Plasma Total exposure (AUC), sex-dependent difference: t-test; for brain concentration at 4 h post-treatment: LLOQ 5.0 ng/ml
Procedure: Male and female CD-1 mice (Charles Rivers Laboratories, Raleigh, NC, USA), 8-11 weeks old at the time of testing, were habituated to the University of Maryland (Baltimore, MD, USA) animal facility for at least one week prior to testing. Mice were group housed 4-5 per cage with a constant 12-hour light cycle (lights on/off at 07:00/19:00). Food and water were available ad libitum. All experiments were performed during the light phase. All animal studies were approved by the University of Maryland School of Medicine Institutional Animal Care and Use Committee and conducted in accordance with the National Institutes of Health Guide for the Care and Use of Laboratory Animals.
(2R,6R)-HNK hydrochloride, (2S,6S)-HNK hydrochloride, (2R,6S)-HNK, (2S,6R)-HNK, (2R,5R)-HNK, (2S,5S)-HNK, (2R,5S)-HNK, (2S,5R)-HNK, (2R,4R)-HNK, (2S,4S)-HNK, (2R,4S)-HNK, and (2S,4R)-HNK hydrochloride were synthesized at the National Center for Advancing Translation Sciences (National Institutes of Health, Rockville, MD, USA) using methods previously described in Morris et al., Org Lett 17:4572-4575 (2017), which is incorporated by reference herein in its entirety. (5R)-methyl-(2R,6R)-HNK was obtained from Organix Inc. (Woburn, MA, USA) or from the National Center for Advancing Translational Sciences (Rockville, MD, USA); synthesis and characterization are described in the Supplemental Information. All compounds were dissolved in 20% (w/v) cyclodextrin (Sigma Aldrich, USA) in saline and administered intraperitoneally (i.p.) in a volume of 7.5 ml/kg.
At 10 min (0.167 h), 30 min (0.5 h), 1 h, 2 h, and 4 h post-treatment, mice were deeply anesthetized (3.5% isoflurane for approximately 2 min). Trunk blood was collected into 1.5-ml polypropylene tubes containing 30 μl of disodium EDTA (0.5 M, pH 8.0) and kept on ice until plasma collection (<30 min). Brains were then removed, flash-frozen in isopentane, and stored at −80° C. until analysis. Blood was centrifuged at 8000×g for 6 min at 4° C. to obtain plasma. Plasma was collected into clean microcentrifuge tubes and stored at −80° C. until analysis.
Ultra-performance liquid chromatography-tandem mass spectrometry (UPLC-MS/MS) methods were developed and optimized to determine the concentration of each HNK in mouse plasma and brain samples following systemic administration. Mass spectrometric analysis was performed on a Waters Xevo TQ-S triple quadrupole instrument using electrospray ionization in positive mode with the selected reaction monitoring. The separation of HNKs from endogenous components was performed on a Waters Acquity UPLC with 0.5 ml/min flow rate and gradient elution. The mobile phase A and B were 0.1% formic acid in water and 0.1% formic acid in acetonitrile, respectively. Plasma and brain concentrations of (2R,6R)-, (2S,6S)-, (2R,4S)-, and (2S,4R)-HNK were determined by hydrophilic interaction liquid chromatography-tandem mass spectrometry (HILIC UPLC-MS/MS) using a BEH amide column (1.7μ, 2.1×50 mm). Plasma and brain concentrations of (2R,6S)-, (2S,6R)-, (2R,5R)- (2S,5S)-, (2R,5S)-, (2S,5R)-, (2R,4R)-, and (2S,4S)-HNK; and (5R)-methyl-(2R,6R)-HNK were determined by reversed phase UPLC-MS/MS based upon a previously described protocol with several modifications using a BEH C18 column ([…], 2.1×50 mm). See Moaddel et al., Talanta 82:1892-1904 (2010), and Zanos et al., Nature 533:481-486 ([…]), both of which are incorporated by reference herein in their entireties.
The gradient for HILIC UPLC method was: 0-0.2 min 98% B; 0.2-1.4 min 98% to 35% B; 1.4-1.8 min 35% to 10% B, 1.9-2.4 min 98% B. The gradient for BEH Cis UPLC method was: 0-0.2 min 1% B; 0.2-1.4 min 1% to 35% B; 1.4-1.8 min 35% to 98% B, 1.8-2.2 min 98% B, 2.3 min 1% B. The analytical run time of the UPLC methods was 2.5 min. The calibration standards and quality control samples were prepared in blank mouse plasma and brain homogenate. Calibration standards ranged from 5.0-5000 ng/ml. […]

NMDARs = settings: read-out: Ki (binding / inhibition of NMDARs); cited from earlier work

| SMILES | B:P ratio (brain to plasma AUC ratio) ([1]; female mice) | t1/2 Brain ([1]; female mice) [min] | t1/2 Plasma ([1]; female mice) [min] | Brain Concentration over time, sex-dependent difference [1] | Plasma Concentration over time, sex-dependent difference [1] | Brain Total exposure (AUC), sex-dependent difference [1] | Plasma Total exposure (AUC), sex-dependent difference [1] | B:P ratio (brain to plasma AUC ratio) ([1]; male mice) | Tmax in the brain ([1]; male mice) [min] | t1/2 Brain ([1]; male mice) [min] | t1/2 Plasma ([1]; male mice) [min] | brain concentration at 4 h post-treatment ([1]; females, but not males) | Tmax in the brain ([1]; female mice) [min] | brain concentration at 4 h post-treatment ([1]; both sexes) | Ki (NMDARs) [nM] |
| --- | --- | --- | --- | --- | --- | --- | --- | --- | --- | --- | --- | --- | --- | --- | --- |
| N[C@@]1(c2ccccc2Cl)C[C@H](O)CCC1=O [(2R,4R)-HNK] | 1.2 | 30 | 30 | F > M at 10 min | F > M at 10 min | M > F | M > F | 1.3 | 30 | 36 | 36 | – | – | – | – |
| N[C@@]1(c2ccccc2Cl)C[C@@H](O)CCC1=O [(2R,4S)-HNK] | 1.0 | 18 | 42 | M > F at 10, 30, 60 min | M > F at 10, 30 min | M > F | M > F | 1.1 | – | 30 | 36 | below LLOQs | – | – | – |
| N[C@@]1(c2ccccc2Cl)CC[C@@H](O)CC1=O [(2R,5R)-HNK] | 1.4 | 30 | 30 | NS | main effect of sex, M > F | – | M > F | 1.2 | – | 24 | 30 | – | – | – | – |
| N[C@@]1(c2ccccc2Cl)CC[C@H](O)CC1=O [(2R,5S)-HNK] | 1.0 | 30 | 30 | F > M at 10, 30 min | F > M at 10, 30 min | F > M | F > M | 0.9 | – | 30 | 30 | – | 30 | – | – |
| N[C@]1(c2ccccc2Cl)C[C@H](O)CCC1=O [(2S,4R)-HNK] | 1.0 | 18 | 24 | F > M at 10 min | F > M at 10 min | – | – | 0.9 | – | 24 | 30 | – | – | below LLOQs | – |
| N[C@]1(c2ccccc2Cl)C[C@@H](O)CCC1=O [(2S,4S)-HNK] | 0.9 | 36 | 42 | F > M at 10, 30 min | F > M at 10, 30 min | F > M | F > M | 0.7 | – | 36 | 42 | – | – | – | – |
| N[C@]1(c2ccccc2Cl)CC[C@@H](O)CC1=O [(2S,5R)-HNK] | 1.0 | 30 | 30 | NS | M > F at 30, 60 min | M > F | M > F | 0.7 | 30 | 42 | 36 | – | – | – | – |
| N[C@]1(c2ccccc2Cl)CC[C@H](O)CC1=O [(2S,5S)-HNK] | 1.3 | 18 | 36 | NS | NS | – | – | 1.2 | – | 18 | 30 | – | – | below LLOQs | – |
| CNC1(c2ccccc2Cl)CCCCC1=O (stereo not shown) [ketamine, reference compound] | – | – | – | – | – | – | – | – | – | – | – | – | – | – | 250 to 1060 |
